Drawing on US20240376100A1 (Redona Therapeutics, Inc., priority 2021, published 2024), this text covers IC50 for 28 molecules.

For the assay, the target named is PAPD5 enzyme (Homo sapiens, UniProt Q8NDF8). Kind of assay: PAPD5 assay (AMP incorporation onto 3'-terminus of RNA substrate, fluorescence quench). It is filed as biochemical. To be noted: PAPD5 protein 0.3 nM, ATP 50 μM, 30 minutes preincubation, room temperature; read-out: Potency PAPD5 IC50. Put shortly:
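Enzyme at 0.3 nM with 50 μM ATP, pH 7.3 HEPES buffer, preincubated with compound 30 minutes at room temperature; 5 nM 5′-fluorescein RNA substrate and 20 nM TAMRA quench probe then added. Initial rates from kinetic fluorescein decrease over ~90 minutes; IC50 by four-parameter fit.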

Sequence of PAPD5 enzyme (Q8NDF8 whole entry): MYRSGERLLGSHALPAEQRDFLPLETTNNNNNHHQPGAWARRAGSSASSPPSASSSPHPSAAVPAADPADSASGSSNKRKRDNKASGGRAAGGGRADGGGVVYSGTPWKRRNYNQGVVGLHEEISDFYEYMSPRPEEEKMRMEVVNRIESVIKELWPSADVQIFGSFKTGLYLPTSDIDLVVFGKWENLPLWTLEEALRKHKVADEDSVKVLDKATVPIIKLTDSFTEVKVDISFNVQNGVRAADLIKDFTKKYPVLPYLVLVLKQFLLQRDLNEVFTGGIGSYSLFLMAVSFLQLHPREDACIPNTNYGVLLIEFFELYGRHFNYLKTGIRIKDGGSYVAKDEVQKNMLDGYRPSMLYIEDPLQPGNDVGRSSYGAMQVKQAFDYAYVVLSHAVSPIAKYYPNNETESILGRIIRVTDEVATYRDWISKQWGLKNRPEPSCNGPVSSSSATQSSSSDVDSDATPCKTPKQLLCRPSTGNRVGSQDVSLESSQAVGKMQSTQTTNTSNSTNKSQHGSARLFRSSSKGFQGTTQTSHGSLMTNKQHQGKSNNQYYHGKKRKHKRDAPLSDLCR

One may read the IC50 as the concentration that inhibits the measured activity by half. For `Nc1ccc(-n2cc(C(=O)O)c(=O)c3cc(Cl)c(N4Cc5cccnc5C4)nc32)cn1` [Example 51, 1-(6-aminopyridin-3-yl)-6-chloro-7-(5,7-dihydro-6H-pyrrolo[3,4-b]pyridin-6-yl)-4-oxo-1,4-dihydro-1,8-naphthyridine-3-carboxylic acid], the IC50 is at most 1000 nM.

`Cc1nc(N)ccc1-n1cc(C(=O)O)c(=O)c2cc(Cl)c(N3Cc4cccnc4C3)cc21` [Example 24, 1-(6-amino-2-methylpyridin-3-yl)-6-chloro-7-(5,7-dihydro-6H-pyrrolo[3,4-b]pyridin-6-yl)-4-oxo-1,4-dihydroquinoline-3-carboxylic acid]: the IC50 was at most 1000 nM.

On to `N#Cc1cc2c(=O)c(C(=O)O)cn(-c3ccc(N)nc3)c2cc1N1Cc2cccnc2C1` [Example 48, 1-(6-aminopyridin-3-yl)-6-cyano-7-(5,7-dihydro-6H-pyrrolo[3,4-b]pyridin-6-yl)-4-oxo-1,4-dihydroquinoline-3-carboxylic acid], for which the IC50 was at most 1000 nM.

`O=C(O)c1cn(Cc2c[nH]cn2)c2cc(N3Cc4cccnc4C3)c(Cl)cc2c1=O` [Example 85, 1-((1H-imidazol-4-yl)methyl)-6-chloro-7-(5,7-dihydro-6H-pyrrolo[3,4-b]pyridin-6-yl)-4-oxo-1,4-dihydroquinoline-3-carboxylic acid]: the half-maximal inhibitory concentration (IC50) was at most 1000 nM.

`COc1ccc(Cn2cc(C(=O)O)c(=O)c3cc(Cl)c(N4Cc5cccnc5C4)nc32)cc1` [Example 44, 6-chloro-7-(5,7-dihydro-6H-pyrrolo[3,4-b]pyridin-6-yl)-1-(4-methoxybenzyl)-4-oxo-1,4-dihydro-1,8-naphthyridine-3-carboxylic acid]: the IC50 is at most 1000 nM.

For the molecule `N#Cc1cc2c(=O)c(C(=O)O)cn(-c3ccc(O)cc3F)c2cc1N1Cc2cccnc2C1` [Example 38, 6-cyano-7-(5,7-dihydro-6H-pyrrolo[3,4-b]pyridin-6-yl)-1-(2-fluoro-4-hydroxyphenyl)-4-oxo-1,4-dihydroquinoline-3-carboxylic acid], the IC50 was at most 1000 nM.

In the case of `Nc1ccc(-n2cc(C(=O)O)c(=O)c3cc(Cl)c(N4Cc5ccccc5C4)cc32)cn1` [Example 194, 1-(6-aminopyridin-3-yl)-6-chloro-7-(isoindolin-2-yl)-4-oxo-1,4-dihydroquinoline-3-carboxylic acid], the IC50 was at most 1000 nM.

Regarding `CN(CCO)c1ccn(-c2cc3c(cc2Cl)c(=O)c(C(=O)O)cn3-c2ccc(N)nc2)n1` [Example 92, 1-(6-aminopyridin-3-yl)-6-chloro-7-(3-((2-hydroxyethyl)(methyl)amino)-1H-pyrazol-1-yl)-4-oxo-1,4-dihydroquinoline-3-carboxylic acid], the 50% inhibitory concentration (IC50) was at most 1000 nM.

As for `COCCCN(C)c1cc2c(cc1Cl)c(=O)c(C(=O)O)cn2-c1cnc(N)cc1C` [Example 133, 1-(6-amino-4-methylpyridin-3-yl)-6-chloro-7-((3-methoxypropyl)(methyl)amino)-4-oxo-1,4-dihydroquinoline-3-carboxylic acid], the 50% inhibitory concentration (IC50) is at most 1000 nM.

Turning to `Cc1cc(N)ncc1-n1cc(C(=O)O)c(=O)c2cc(Cl)c(-n3ccnc3)nc21` [Example 152, 1-(6-amino-4-methylpyridin-3-yl)-6-chloro-7-(1H-imidazol-1-yl)-4-oxo-1,4-dihydro-1,8-naphthyridine-3-carboxylic acid], the concentration for half-maximal inhibition (IC50) is at most 1000 nM.

As to `COc1ccc2c(c1)CN(c1nc3c(cc1Cl)c(=O)c(C(=O)O)cn3-c1cnc(N)cc1C)C2` [Example 161, 1-(6-amino-4-methylpyridin-3-yl)-6-chloro-7-(5-methoxyisoindolin-2-yl)-4-oxo-1,4-dihydro-1,8-naphthyridine-3-carboxylic acid], the 50% inhibitory concentration (IC50) is at most 1000 nM.

Regarding `Cc1cc(NC(=O)C2CCC2)ncc1-n1cc(C(=O)O)c(=O)c2cc(Cl)c(N3Cc4cccnc4C3)nc21` [Example 174, 6-chloro-1-(6-(cyclobutanecarboxamido)-4-methylpyridin-3-yl)-7-(5,7-dihydro-6H-pyrrolo[3,4-b]pyridin-6-yl)-4-oxo-1,4-dihydro-1,8-naphthyridine-3-carboxylic acid], the half-inhibitory concentration (IC50) is at most 1000 nM.

In the case of `Nc1cc(C2CC2)c(-n2cc(C(=O)O)c(=O)c3cc(Cl)c(N4Cc5cccnc5C4)cc32)cn1` [Example 118, 1-(6-amino-4-cyclopropylpyridin-3-yl)-6-chloro-7-(5,7-dihydro-6H-pyrrolo[3,4-b]pyridin-6-yl)-4-oxo-1,4-dihydroquinoline-3-carboxylic acid], the IC50 was at most 1000 nM.

With `COc1cccc(Cn2cc(C(=O)O)c(=O)c3cc(Cl)c(N4Cc5cccnc5C4)nc32)c1` [Example 42, 6-chloro-7-(5,7-dihydro-6H-pyrrolo[3,4-b]pyridin-6-yl)-1-(3-methoxybenzyl)-4-oxo-1,4-dihydro-1,8-naphthyridine-3-carboxylic acid], the 50% inhibitory concentration (IC50) was at most 1000 nM.

As for `Cc1cc(N(C)CCN(C)C)ncc1-n1cc(C(=O)O)c(=O)c2cc(Cl)c(N3Cc4cccnc4C3)nc21` [Example 192, 6-chloro-7-(5,7-dihydro-6H-pyrrolo[3,4-b]pyridin-6-yl)-1-(6-((2-(dimethylamino)ethyl)(methyl)amino)-4-methylpyridin-3-yl)-4-oxo-1,4-dihydro-1,8-naphthyridine-3-carboxylic acid], the half-inhibitory concentration (IC50) is at most 1000 nM.

In the case of `O=C(O)c1cn(-c2cnc(N3CCC3)cn2)c2cc(N3Cc4cccnc4C3)c(Cl)cc2c1=O` [Example 201, 1-(5-(azetidin-1-yl)pyrazin-2-yl)-6-chloro-7-(5,7-dihydro-6H-pyrrolo[3,4-b]pyridin-6-yl)-4-oxo-1,4-dihydroquinoline-3-carboxylic acid], the IC50 is at most 1000 nM.

For the molecule `COc1ccccc1Cn1cc(C(=O)O)c(=O)c2cc(Cl)c(N3Cc4cccnc4C3)nc21` [Example 41, 6-chloro-7-(5,7-dihydro-6H-pyrrolo[3,4-b]pyridin-6-yl)-1-(2-methoxybenzyl)-4-oxo-1,4-dihydro-1,8-naphthyridine-3-carboxylic acid], the concentration for half-maximal inhibition (IC50) was at most 1000 nM.

Regarding `Cc1cc(N)ncc1-n1cc(C(=O)O)c(=O)c2cc(Cl)c(N3Cc4ccncc4C3)nc21` [Example 159, 1-(6-amino-4-methylpyridin-3-yl)-6-chloro-7-(1,3-dihydro-2H-pyrrolo[3,4-c]pyridin-2-yl)-4-oxo-1,4-dihydro-1,8-naphthyridine-3-carboxylic acid], the IC50 is at most 1000 nM.

Consider `Cc1cc(N2CCC2)ncc1-n1cc(C(=O)O)c(=O)c2cc(Cl)c(N3Cc4cccnc4C3)nc21` [Example 91, 1-(6-(azetidin-1-yl)-4-methylpyridin-3-yl)-6-chloro-7-(5,7-dihydro-6H-pyrrolo[3,4-b]pyridin-6-yl)-4-oxo-1,4-dihydro-1,8-naphthyridine-3-carboxylic acid], for which the 50% inhibitory concentration (IC50) is at most 1000 nM.

With `CNc1ccn(-c2nc3c(cc2Cl)c(=O)c(C(=O)O)cn3-c2cnc(N)cc2C)n1` [Example 148, 1-(6-amino-4-methylpyridin-3-yl)-6-chloro-7-(3-(methylamino)-1H-pyrazol-1-yl)-4-oxo-1,4-dihydro-1,8-naphthyridine-3-carboxylic acid], the IC50 was at most 1000 nM.

Consider `CCN(CCOC)c1cc2c(cc1Cl)c(=O)c(C(=O)O)cn2-c1cnc(N)cc1C` [Example 138, 1-(6-amino-4-methylpyridin-3-yl)-6-chloro-7-(ethyl(2-methoxyethyl)amino)-4-oxo-1,4-dihydroquinoline-3-carboxylic acid], for which the IC50 is at most 1000 nM.

Take `Cc1cc(O)ncc1-n1cc(C(=O)O)c(=O)c2cc(C#N)c(N3Cc4cccnc4C3)cc21` [Example 60, 6-cyano-7-(5,7-dihydro-6H-pyrrolo[3,4-b]pyridin-6-yl)-1-(6-hydroxy-4-methylpyridin-3-yl)-4-oxo-1,4-dihydroquinoline-3-carboxylic acid]: the IC50 was at most 1000 nM.

On to `Cn1cnc(Cn2cc(C(=O)O)c(=O)c3cc(Cl)c(N4Cc5cccnc5C4)cc32)c1` [Example 131, 6-chloro-7-(5,7-dihydro-6H-pyrrolo[3,4-b]pyridin-6-yl)-1-((1-methyl-1H-imidazol-4-yl)methyl)-4-oxo-1,4-dihydroquinoline-3-carboxylic acid], for which the IC50 is at most 1000 nM.

Regarding `Cc1cc(N2CCC2)ncc1-n1cc(C(=O)O)c(=O)c2cc(F)c(N3Cc4cccnc4C3)cc21` [Example 190, 1-(6-(azetidin-1-yl)-4-methylpyridin-3-yl)-7-(5,7-dihydro-6H-pyrrolo[3,4-b]pyridin-6-yl)-6-fluoro-4-oxo-1,4-dihydroquinoline-3-carboxylic acid], the IC50 is at most 1000 nM.

For `O=C(O)c1cn(-c2ccc(O)cc2F)c2cc(N3Cc4cccc(F)c4C3)c(F)cc2c1=O` [Example 15, 6-fluoro-1-(2-fluoro-4-hydroxyphenyl)-7-(4-fluoroisoindolin-2-yl)-4-oxo-1,4-dihydroquinoline-3-carboxylic acid], the IC50 was at most 1000 nM.

As for `Cc1cc(N)ncc1-n1cc(C(=O)O)c(=O)c2cc(Cl)c(N3CCc4ncncc4C3)nc21` [Example 198, 1-(6-amino-4-methylpyridin-3-yl)-6-chloro-7-(7,8-dihydropyrido[4,3-d]pyrimidin-6(5H)-yl)-4-oxo-1,4-dihydro-1,8-naphthyridine-3-carboxylic acid], the IC50 is at most 1000 nM.

In the case of `Cc1cc(N)ncc1-n1cc(C(=O)O)c(=O)c2cc(C#N)c(N3Cc4cccnc4C3)cc21` [Example 80, 1-(6-amino-4-methylpyridin-3-yl)-6-cyano-7-(5,7-dihydro-6H-pyrrolo[3,4-b]pyridin-6-yl)-4-oxo-1,4-dihydroquinoline-3-carboxylic acid], the IC50 is at most 1000 nM.

Consider `Cc1cc(NC(=O)OC(C)(C)C)ncc1-n1cc(C(=O)O)c(=O)c2cc(Cl)c(N3CCc4ccccc4C3)nc21` [Example 175, 1-(6-((tert-butoxycarbonyl)amino)-4-methylpyridin-3-yl)-6-chloro-7-(3,4-dihydroisoquinolin-2(1H)-yl)-4-oxo-1,4-dihydro-1,8-naphthyridine-3-carboxylic acid], for which the IC50 is at most 1000 nM.
